Results as given in ChEMBL document CHEMBL1156824, “Physicochemical space for optimum oral bioavailability: contribution of human intestinal absorption and first-pass elimination” (J Med Chem, 2010).

Key:
Homo sapiens = species on record: Homo sapiens; assay: Hepatic clearance in human; details: in vivo
clinical = details: human, in vivo

SMILES	CL (Homo sapiens) [mL/min/kg]	CL renal (clinical) [mL/min/kg]
C=CCN1CCCC1CNC(=O)c1cc2[nH]nnc2cc1OC (stereo unspecified) [ALIZAPRIDE]	1.3	5.3
CC1CCCC(C)N1CCCC(O)(c1ccccc1)c1ccccn1 (stereo unspecified) [PIRMENOL]	1.1	0.7
CN(C)CCC(c1ccc(Cl)cc1)c1ccccn1 (stereo unspecified) [CHLORPHENIRAMINE]	2.1	0.4
CCC1=C(C)CN(C(=O)NCCc2ccc(S(=O)(=O)NC(=O)N[C@H]3CC[C@H](C)CC3)cc2)C1=O [GLIMEPIRIDE]	0.5	0.002
CCCC(CCC)C(=O)O [VALPROIC ACID]	–	0.0029
CS(=O)(=O)OCCCCOS(C)(=O)=O [BUSULFAN]	2.4	0.024
C[C@H]1O[C@H](O[C@H]2[C@H](O)[C@@H](O)[C@@H](O[C@H]3[C@H](O)[C@@H](O)C(O)O[C@@H]3CO)O[C@@H]2CO)[C@H](O)[C@@H](O)[C@@H]1N[C@H]1C=C(CO)[C@@H](O)[C@H](O)[C@H]1O (stereo partly specified) [ACARBOSE]	0.1	2.1
COc1ccc([C@]2(C#N)CC[C@@H](C(=O)O)CC2)cc1OC1CCCC1 [CILOMILAST]	0.5	0.005
CCCCN1CCCCC1C(=O)Nc1c(C)cccc1C (stereo unspecified) [BUPIVACAINE]	4.2	0.1
CCOC(=O)Nc1ccc(NCc2ccc(F)cc2)nc1N [FLUPIRTINE]	1.3	0.3
CN1C(=O)CC[C@H]1c1cccnc1 [COTININE]	0.8	0.1
OC(CCN1CCCC1)(c1ccccc1)C1CCCCC1 (stereo unspecified) [PROCYCLIDINE]	0.8	0.043
COc1ccccc1N1CCN(CCCNc2cc(=O)n(C)c(=O)n2C)CC1	2.6	0.5
C[C@@H]1C[C@H]2[C@@H]3CCC4=CC(=O)C=C[C@]4(C)[C@@]3(F)[C@@H](O)C[C@]2(C)[C@@]1(O)C(=O)CO [DEXAMETHASONE]	3.2	0.1
CN(C)CCC=C1c2ccccc2CCc2ccccc21 [AMITRIPTYLINE]	6	0.1
CC(C)(O)c1ccccc1CC[C@@H](SCC1(CC(=O)O)CC1)c1cccc(/C=C/c2ccc3ccc(Cl)cc3n2)c1 [MONTELUKAST]	0.7	0.0014
Cc1ccnc2c1NC(=O)c1cccnc1N2C1CC1 [NEVIRAPINE]	0.3	0.0069
COc1cccc(C2(O)CCCCC2CN(C)C)c1 (stereo unspecified) [TRAMADOL]	5.5	1
NC(=O)CN1CC(O)CC1=O (stereo unspecified) [OXIRACETAM]	0.1	1.7
NS(=O)(=O)c1cc(C2(O)NC(=O)c3ccccc32)ccc1Cl (stereo unspecified) [CHLORTHALIDONE]	0.5	1
Cn1c(=O)c2c(ncn2CC(O)CO)n(C)c1=O (stereo unspecified) [DYPHYLLINE]	0.8	4
O=C(N[C@H](CO)[C@H](O)c1ccc([N+](=O)[O-])cc1)C(Cl)Cl [CHLORAMPHENICOL]	2.2	0.2
O=C1CN=C(c2ccccc2Cl)c2cc([N+](=O)[O-])ccc2N1 [CLONAZEPAM]	0.9	0.0088

SMILES	CL (Homo sapiens) [mL/min/kg]	CL renal (clinical) [mL/min/kg]
CCO[C@@H](Cc1ccc(OCCc2ccc(OS(C)(=O)=O)cc2)cc1)C(=O)O [TESAGLITAZAR]	0.032	0.007
CNCC[C@@H](Oc1ccccc1C)c1ccccc1 [ATOMOXETINE]	9	0.3
C[C@H]1c2cccc(O)c2C(=O)C2=C(O)[C@]3(O)C(=O)C(C(N)=O)=C(O)[C@@H](N(C)C)[C@@H]3[C@@H](O)[C@@H]21.O [DOXYCYCLINE]	0.3	0.2
O=P1(NCCCl)OCCCN1CCCl (stereo unspecified) [IFOSFAMIDE]	0.5	0.6
COCCc1ccc(OCC(O)CNC(C)C)cc1 (stereo unspecified) [METOPROLOL]	12.4	0.7
CCOC(=O)c1ncn2c1CN(C)C(=O)c1cc(F)ccc1-2 [FLUMAZENIL]	16	0.032
CC1=NS(=O)(=O)c2cc(Cl)ccc2N1 [DIAZOXIDE]	–	0.1
CC(=O)CC(c1ccccc1)c1c(O)c2ccccc2oc1=O (stereo unspecified) [WARFARIN]	0.1	0.0011
NS(=O)(=O)c1cc2c(cc1C(F)(F)F)NCNS2(=O)=O [HYDROFLUMETHIAZIDE]	0.7	9
O=C(O)CCCc1ccc(N(CCCl)CCCl)cc1 [CHLORAMBUCIL]	2.8	0.028
CCS(=O)(=O)CCn1c([N+](=O)[O-])cnc1C [TINIDAZOLE]	0.5	0.1
CCC[C@@H]1C[C@@H](C(=O)N[C@@H]([C@H]2O[C@H](SC)[C@H](O)[C@@H](O)[C@H]2O)[C@H](C)Cl)N(C)C1 [CLINDAMYCIN]	3.9	0.6
CN1CCN2c3ncccc3Cc3ccccc3C2C1 (stereo unspecified) [MIRTAZAPINE]	7.7	0.3
COc1cc2nc(N3CCN(C(=O)C4CCCO4)CC3)nc(N)c2cc1OC (stereo unspecified) [TERAZOSIN]	1	0.1
O=c1[nH]c2ccccc2n1CCCN1CCC(n2c(=O)[nH]c3cc(Cl)ccc32)CC1 [DOMPERIDONE]	9.5	0.038
O=c1n(CCCN2CCN(c3cccc(Cl)c3)CC2)nc2ccccn12 [TRAZODONE]	1.4	0.0018
CN(C(=O)c1c(O)c2ccccc2n(C)c1=O)c1ccccc1 [ROQUINIMEX]	0.1	0.0008
CCN1CCC[C@H]1CNC(=O)c1c(OC)ccc(Br)c1OC [REMOXIPRIDE]	1.3	0.4
O=C1CN=C(c2ccccc2)c2cc([N+](=O)[O-])ccc2N1 [NITRAZEPAM]	0.9	0.0086
NC(=O)NO [HYDROXYUREA]	1	0.5
C[C@H]([C@](O)(Cn1cncn1)c1ccc(F)cc1F)S(C)(=O)=O [GENACONAZOLE]	0.038	0.2
C[C@@H]1C(=O)O[C@H]2[C@H](O)[C@@]34[C@H]5C[C@@H](C(C)(C)C)[C@]36[C@@H](OC(=O)[C@@H]6O)O[C@@]4(C(=O)O5)[C@@]12O [GINKOLIDE B]	1.3	1
COC(=O)Nc1nc2ccc(C(=O)c3ccccc3)cc2[nH]1 [MEBENDAZOLE]	14.8	0.2

SMILES	CL (Homo sapiens) [mL/min/kg]	CL renal (clinical) [mL/min/kg]
O=C(NCCN1CCOCC1)c1ccc(Cl)cc1 [MOCLOBEMIDE]	10	0.1
c1ccc(C2(N3CCCCC3)CCCCC2)cc1 [PHENCYCLIDINE]	4.3	0.8
CN(C)CCCN1c2ccccc2Sc2ccc(Cl)cc21 [CHLORPROMAZINE]	15.8	0.2
Cn1c(=O)c2[nH]cnc2n(C)c1=O.O [THEOPHYLLINE]	0.8	0.1
COc1ccc2c(c1)N(C[C@H](C)CN(C)C)c1ccccc1S2 [LEVOMEPROMAZINE]	5.9	4
Cc1nccn1CC1CCc2c(c3ccccc3n2C)C1=O (stereo unspecified) [ONDANSETRON]	5.5	0.3
CCCCNc1cc(C(=O)O)cc(S(N)(=O)=O)c1Oc1ccccc1 [BUMETANIDE]	1	1.5
CC(C)(C)NC(=O)[C@H]1CC[C@H]2[C@@H]3CC[C@H]4NC(=O)C=C[C@]4(C)[C@H]3CC[C@]12C [FINASTERIDE]	–	0.024
CCCCCNC(=N)N/N=C/c1c[nH]c2ccc(OC)cc12 [TEGASEROD]	17.6	0.4
CCC1(c2ccccc2)C(=O)NC(=O)NC1=O [PHENOBARBITAL]	0.0479	0.0151
Cc1ccc(C(=O)Nc2ccc(S(=O)(=O)O)c3cc(S(=O)(=O)O)cc(S(=O)(=O)O)c23)cc1NC(=O)c1cccc(NC(=O)Nc2cccc(C(=O)Nc3cc(C(=O)Nc4ccc(S(=O)(=O)O)c5cc(S(=O)(=O)O)cc(S(=O)(=O)O)c45)ccc3C)c2)c1 [SURAMIN]	0.0011	0.0046
CC(CC(c1ccccc1)c1ccccc1)NC(C)(C)C (stereo unspecified) [TERODILINE]	1	0.1
Cc1nnc(SCC2=C(C(=O)O)N3C(=O)[C@@H](NC(=O)[C@H](O)c4ccccc4)[C@H]3SC2)s1	0.2	2.4
CN(C)C(=O)Oc1cccc([N+](C)(C)C)c1.[Br-] [NEOSTIGMINE BROMIDE]	3.8	5.4
Cc1cc(=O)n(-c2ccccc2)n1C [ANTIPYRINE]	0.6	0.0243
Cc1cc(NC(=O)C2=C(O)c3ccccc3S(=O)(=O)N2C)no1 [ISOXICAM]	0.1	0.0014
C[C@@H]1C(=O)O[C@H]2C[C@@]34[C@H]5C[C@@H](C(C)(C)C)[C@]36[C@@H](OC(=O)[C@@H]6O)O[C@@]4(C(=O)O5)[C@]21O [GINKGOLIDE A]	0.7	1.7
CCOc1cc(CC(=O)N[C@@H](CC(C)C)c2ccccc2N2CCCCC2)ccc1C(=O)O [REPAGLINIDE]	7.7	0.1
O=C1CN=C(c2ccccn2)c2cc(Br)ccc2N1 [BROMAZEPAM]	0.3	0.3
Cc1cccc(Nc2ccncc2S(=O)(=O)NC(=O)NC(C)C)c1 [TORSEMIDE]	0.4	0.1
CC[C@H]1OC(=O)[C@H](C)[C@@H](O[C@H]2C[C@@](C)(OC)[C@@H](O)[C@H](C)O2)[C@H](C)[C@@H](O[C@@H]2O[C@H](C)C[C@H](N(C)C)[C@H]2O)[C@](C)(OC)C[C@@H](C)C(=O)[C@H](C)[C@@H](O)[C@]1(C)O [CLARITHROMYCIN]	4.7	2.6
